Test systems include DLD-1; DMS-114; SNB-78; LXFL 529; MDA-MB-231; Hs-578T; HOP-18; XF498.
Common to all, as to test: growth of human tumour cells (NCI), 48 h

Structures are written as SMILES. Counter-ions that a name gives are not always drawn.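 96-well plates; 48 h exposure; 5 concentrations. Endpoints by linear interpolation between flanking doses. Not reached: highest tested concentration assigned. GI50 is the concentration that inhibits growth by half.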 The source made the active and inactive calls. Cut-off read from the data, not from the text of the source: active = GI50 up to about 1.1 µM and inactive = higher.

With `CCOC(=O)CSC(=O)NCCCl`, the GI50 in the test with DLD-1, in the test with DMS-114, in the test on SNB-78 and with LXFL 529 was > 100 µM (inactive) throughout.
On to `CCOC(=O)c1csc(NC(=O)C(C)N2CCCCC2)n1` (stereo not drawn), for which the GI50 in the test with MDA-MB-231 is > 100 µM (inactive).
`COc1cc(C2C3=C(N=C4SC(C(C)=O)=C(C)N42)c2ccccc2CC3)cc(OC)c1OC` (stereo not drawn): the GI50 is 49.2 µM (inactive) in the test with MDA-MB-231 and 50.4 µM (inactive) in the test with Hs-578T.
Take `O=C1C(=C2CCCC2)CCC1CN1CCCCC1` (stereo not drawn): the GI50 is 15.3 µM (inactive) in the test on HOP-18, 17.5 µM (inactive) with DMS-114, 19.6 µM (inactive) with SNB-78 and 13.2 µM (inactive) in the test with LXFL 529.
Consider `O=S(=O)(O)c1ccc2c(/N=N/c3cccc4ccccc34)c(O)c(S(=O)(=O)O)cc2c1`, for which the GI50 in the test on MDA-MB-231 and in the test with Hs-578T was > 100 µM (inactive) in each case.
As to `COc1ccc(C2=C(N)c3c(Cl)cccc3C2=O)cc1`, the figures for the GI50 in the test with MDA-MB-231 and with Hs-578T were 80.2 µM (inactive) and 26.1 µM (inactive), respectively.
For `N#Cc1nnn(-c2ccc(Br)cc2)c1O`, the GI50 in the test on MDA-MB-231 and with Hs-578T was > 100 µM (inactive) each time.
In the case of `Cc1cc(C)c(/C=C2\C(=O)Nc3ccccc32)[nH]1` [SEMAXANIB], the GI50 in the test with MDA-MB-231 was > 62.1 µM (inactive).
With `C=CC1=C(C)c2cc3[nH]c(c4c5nc(cc6[nH]c(cc1n2)c(C)c6CC)C=C5C(=O)C4C(=O)OC)C(CCC(=O)OC/C=C(\C)CCCC(C)CCCC(C)CCCC(C)C)C3C.C=CC1=C(C)c2cc3[nH]c(c4c5nc(cc6[nH]c(cc1n2)c(C=O)c6CC)C=C5C(=O)C4C(=O)OC)C(CCC(=O)OC/C=C(\C)CCCC(C)CCCC(C)CCCC(C)C)C3C` (stereo not drawn), the GI50 in the test with MDA-MB-231 and in the test on Hs-578T was > 100 µM (inactive) each time.
Turning to `O=C(O)C(Cc1cccs1)NC(=O)C(F)(F)F` (stereo not drawn), the GI50 in the test with DLD-1, in the test with HOP-18 and with DMS-114 was > 100 µM (inactive) each time.
Turning to `OCCN1c2ccccc2Sc2ccccc21`, the GI50 in the test with MDA-MB-231 and in the test with Hs-578T was > 10 µM (inactive) throughout.
As for `CCCCOC(=O)CC(CC(=O)OCCCC)(OC(C)=O)C(=O)OCCCC` [ACETYLTRIBUTYL CITRATE], the GI50 in the test on MDA-MB-231 was > 200 µM (inactive); with Hs-578T it was > 123 µM (inactive).
On to `O=C(C1C(c2ccccc2)N1C(c1ccccc1)c1ccccc1)C1C(c2ccccc2)N1C(c1ccccc1)c1ccccc1` (stereo not drawn), for which the GI50 in the test on MDA-MB-231 is 19.8 µM (inactive); in the test with Hs-578T it was 20.2 µM (inactive).
For the compound `COc1cc(C(=O)C2CC3(CCC2(O)c2cc(OC)c(OC)c(OC)c2)CC(=O)Nc2ccccc2C3=O)cc(OC)c1OC` (stereo not drawn), the GI50 is > 100 µM (inactive) in the test on MDA-MB-231 and 91 µM (inactive) in the test with Hs-578T.
Taken in the same sequence, the figures for `CC1(C)C=CC(=O)C(O)C(C)(C)C1=O` (stereo not drawn) were > 100 µM (inactive) and 28.8 µM (inactive).
As to `COc1ccc(C(=O)C(C(=O)C(=O)NC2C3CC4CC(C3)CC2C4)c2ccc(OC)cc2)cc1` (stereo not drawn), the GI50 in the test with DLD-1, with HOP-18, with DMS-114, in the test on SNB-78 and with LXFL 529 was > 100 µM (inactive) each time.
In the case of `CCOC(=O)/C(SC#N)=C(/N)N1CCCC1`, the GI50 in the test on MDA-MB-231 and with Hs-578T was > 100 µM (inactive) each time.
Take `CN1c2ccccc2SC2C(c3ccccc3)=NOC21` (stereo not drawn): the GI50 is 27 µM (inactive) with MDA-MB-231 and 29 µM (inactive) in the test with Hs-578T.
Turning to `COC(=O)C1Cc2c([nH]c3ccccc23)C=N1` (stereo not drawn), the GI50 in the test with DLD-1, in the test with HOP-18, with DMS-114, with SNB-78 and in the test with LXFL 529 was > 100 µM (inactive) in each case.
Take `CN1C(=O)[C@@H]2[C@@H]3c4ccccc4N(S(=O)(=O)C(F)(F)F)[C@@H]3c3[nH]c4ccccc4c3[C@@H]2C1=O`: the GI50 with MDA-MB-231 was 13.2 µM (inactive); in the test with Hs-578T, 19.7 µM (inactive).
Taken in the same sequence, the figures for `CCc1ccc(COC(=O)C2=C(C)NC(C)=C(C(=O)OCc3ccc(CC)cn3)C2C2=COCCO2)nc1` were 14.2 µM (inactive) and 14 µM (inactive).
As to `N#Cc1c(-c2ccc([N+](=O)[O-])cc2)c(C#N)c(=O)n(NS(=O)(=O)c2ccccc2)c1O`, the GI50 in the test on MDA-MB-231 was > 100 µM (inactive).
For `CC1(C)CC(=O)c2c(nc3c4c([nH]c(-c5ccc([N+](=O)[O-])cc5)c24)CC(C)(C)C3)C1`, the GI50 with MDA-MB-231 is 43.6 µM (inactive); in the test on Hs-578T, 56.5 µM (inactive).
Taken in the same sequence, the figures for `O=C1Cc2c([nH]c3cc(Br)ccc23)-c2ccccc2N1` were 22.8 µM (inactive) and 14.8 µM (inactive).
As for `Cc1cc(N(CCC#N)CCC#N)ccc1/C=C(\NC(=O)/C=C/c1ccccc1)C(=O)Nc1ccccc1Cl`, the GI50 in the test with DLD-1, in the test with DMS-114, in the test on SNB-78 and in the test on LXFL 529 was > 100 µM (inactive) each time.
As to `CC(=O)Nc1ccc(C(=O)NN2C(=O)C(Cl)C2c2cccc([N+](=O)[O-])c2)cc1` (stereo not drawn), the GI50 with DLD-1 and in the test with LXFL 529 was > 100 µM (inactive) throughout.
Regarding `Cc1ccc2c(O)cc(-c3sccc3C)nc2n1`, the GI50 with MDA-MB-231 is 2.48 µM (inactive); in the test on Hs-578T it was 0.794 µM (active).
Consider `Clc1ccccc1C(n1ncc2ccccc21)n1ncc2ccccc21`, for which the GI50 in the test on DLD-1 is 40.5 µM (inactive); in the test on DMS-114, 31.3 µM (inactive); in the test with XF498 it was 14.5 µM (inactive); with SNB-78, 71.1 µM (inactive); in the test with LXFL 529, 37 µM (inactive).
As to `CN(C)N1C(=O)S/C(=C\c2ccc([N+](=O)[O-])cc2)C1=O`, the GI50 in the test with MDA-MB-231 and in the test with Hs-578T was > 100 µM (inactive) each time.
With `C=C[C@@](C)(/C=C/c1ccc(O)cc1)CCC=C(C)C` [BAKUCHIOL], the GI50 in the test on MDA-MB-231 was 18.6 µM (inactive); in the test on Hs-578T, 20.9 µM (inactive).
Taken in the same sequence, the figures for `CCOP(=O)(OCC)C(Nc1ccc(C(=O)O)cc1)c1ccc(C(Nc2ccc(C(=O)O)cc2)P(=O)(OCC)OCC)cc1` (stereo not drawn) were > 100 µM (inactive) and > 100 µM (inactive).
Taken in the same sequence, the figures for `CC(=O)[C@H]1CC[C@@H]2[C@]1(C)CC=C1[C@]23C=C[C@]2(C[C@@H](O)CC[C@]12C)C(C(=O)O)C3C(=O)O` (stereo partly drawn) were > 100 µM (inactive) and > 100 µM (inactive).
For the compound `O=C1C(N2CCNCC2)=C(Cl)C(=O)c2ncccc21`, the GI50 in the test with MDA-MB-231 and with Hs-578T was > 10 µM (inactive) each time.
With `NCC(=O)N[C@H]1c2ccsc2/C(=N/O)[C@H]1O`, in the test with MDA-MB-231, the GI50 was > 100 µM (inactive).
Consider `CC(NNC(=O)c1cc[n+]([BH2-]C#N)cc1)c1ccc(Cl)cc1Cl` (stereo not drawn), for which the values for the GI50 in the test with MDA-MB-231 and in the test with Hs-578T were 35 µM (inactive) and 39.5 µM (inactive), respectively.
Take `CCCCCC(/C=C/c1ncccc1OCCCCCC(=O)O)=N\NC1=NCCN1`: the results for the GI50 in the test on DMS-114, with XF498 and in the test on LXFL 529 were 45.2 µM (inactive), 27.3 µM (inactive) and 47.2 µM (inactive), respectively.
For the compound `CN(C)c1cccc(/C=C(\C#N)c2ccccc2)c1`, the GI50 in the test with MDA-MB-231 is 1.11 µM (active); in the test with Hs-578T it was 0.723 µM (active).
Consider `CCOC(=O)c1c(-c2cccc(Cl)c2)c(C(=O)OC)c(C)c2sc(C=O)nc12`, for which the GI50 in the test with MDA-MB-231 is 15.6 µM (inactive); with Hs-578T, 21 µM (inactive).
Taken in the same sequence, the figures for `CCOC(=O)c1sc2nc(SC)nc3c2c1NC(=O)CN3c1cccc(F)c1` were 16.1 µM (inactive) and 29.2 µM (inactive).
As for `CCOC(=O)CNC(=O)C(CSCc1ccc(Br)cc1)NC(=O)CCC(N)C(=O)OCC` (stereo not drawn), the GI50 in the test with MDA-MB-231 and with Hs-578T was > 50 µM (inactive) in each case.
With `C[C@]12CC[C@H](O)CC1=CC[C@@H]1[C@@H]2CC[C@]2(C)C(=O)CC[C@@H]12` [PRASTERONE], in the test with Hs-578T, the GI50 is 45.6 µM (inactive).
For `NC1C(O)C(O)C(CO)OC1n1cc(F)c(=O)[nH]c1=O` (stereo not drawn), the GI50 in the test on DLD-1, in the test on HOP-18, with DMS-114, with SNB-78 and in the test with LXFL 529 was > 100 µM (inactive) each time.
For `O=C1CC2(CCC(O)(c3cccc4ccccc34)C(C(=O)c3cccc4ccccc34)C2)C(=O)c2ccccc2N1` (stereo not drawn), the GI50 is 17.7 µM (inactive) in the test on MDA-MB-231 and 6.78 µM (inactive) with Hs-578T.
Turning to `O=C(Cc1ccccc1)Nc1nc2ccc(Cl)cc2c2nc(-c3ccco3)nn12`, the GI50 in the test on MDA-MB-231 is > 21.2 µM (inactive); in the test on Hs-578T, 11 µM (inactive).
As to `COc1ccc(C(c2ccc(C(C)C)cc(=O)c2O)c2ccc3cccnc3c2O)cc1` (stereo not drawn), the GI50 was 0.45 µM (active) in the test with DLD-1; 0.173 µM (active) in the test with DMS-114; 2.17 µM (inactive) with XF498; 1.05 µM (active) in the test on SNB-78; 0.506 µM (active) in the test with LXFL 529.
Take `OC[P+](CO)(CO)C12CC3CC(CC(C3)C1)C2`: the GI50 in the test with MDA-MB-231 and in the test with Hs-578T was > 100 µM (inactive) in each case.
Take `Oc1ccc(C(=C(Br)c2ccccc2)c2ccc(O)cc2)cc1`: the GI50 in the test on MDA-MB-231 is 10.9 µM (inactive); with Hs-578T, 4.83 µM (inactive).
Taken in the same sequence, the figures for `Clc1ccc(OCc2nnc3sc(-c4ccc(-c5ccc(Cl)cc5Cl)o4)nn23)c(Cl)c1` were 16.3 µM (inactive) and 19.7 µM (inactive).
With `O=C1Nc2ccccc2C(=O)/C1=C/NC(=S)NCCc1ccccc1`, in the test with MDA-MB-231, the GI50 was > 100 µM (inactive).
In the case of `COc1cc(OC2OC(CO)C(O)C(O)C2O)c2c(O)c3c(=O)cc(C)oc3cc2c1` (stereo not drawn), the GI50 in the test with Hs-578T is > 100 µM (inactive).
For the compound `COC(=O)[C@H](Cc1ccccc1)NP(=O)(O)OCC1C=CC(n2cc(C)c(=O)[nH]c2=O)O1` (stereo partly drawn), the GI50 in the test on MDA-MB-231 and with Hs-578T was > 100 µM (inactive) each time.
For the compound `CN(C)/N=N/c1ccc(NC=O)cc1`, the GI50 in the test on MDA-MB-231 is > 100 µM (inactive).
Regarding `O=S(=O)(O)c1ccc2cc(/N=N\c3cc(S(=O)(=O)O)c4cccnc4c3O)ccc2c1`, the GI50 with MDA-MB-231 and in the test on Hs-578T was > 100 µM (inactive) in each case.
Take `CCCNC(C#N)c1ccc(C(C#N)NCCC)cc1` (stereo not drawn): the GI50 with MDA-MB-231 and with Hs-578T was > 100 µM (inactive) in each case.
Turning to `O=c1cc(N2CCCC2)[nH]c(=O)n1-c1ccccc1`, in the test on MDA-MB-231, the GI50 was > 100 µM (inactive).
As to `Cc1c(S(=O)(=O)c2ccccc2)c(N)n(CCN(C)C)c1C`, the GI50 with MDA-MB-231 and in the test on Hs-578T was > 100 µM (inactive) each time.
As for `CCC(=O)OCN(C)c1nc(N(C)COC(=O)CC)nc(N(C)COC(=O)CC)n1`, the GI50 is 57.4 µM (inactive) in the test with MDA-MB-231 and > 100 µM (inactive) in the test with Hs-578T.

The record behind these values is ChEMBL document CHEMBL1201862, “PubChem BioAssay data set” (2004).
